Square brackets hold non-standard residues; d marks the D form. Peptide text beside a SMILES is read from it. * marks the point of attachment. Sta = CC(C)C[C@H](N)[C@@H](O)CC(=O)O; Isovaleryl = CC(C)CC(=O)*
Columns and labels:
apoE cleavage enzyme [1] = experiment: chromogenic assay with Ala-Ala-Pro-Phe-p-nitroanilide as substrate; format: biochemical, mouse; settings: 1 mM Ala-Ala-Pro-Phe-p-nitroanilide substrate
Method: To monitor the cleavage activity, a chromogenic group (p-nitroanilide) was added to the carboxyl-side of the last amino acid at the C-terminus. If the enzyme cuts the bond between the last amino acid and p-nitroanilide, the released p-nitroanilide will yield a yellow color, which can be monitored by a spectrophotometer at about 390-410 nm.
Importantly, a proline at the P2 position and two hydrophobic amino acids (such as alanine, Ala) at the P3 and P4 positions are critical for determining the efficiency of the cleavage. Taken together, the putative apoE cleavage enzyme is a chymotrypsin-like serine protease, which recognizes the motif of Ala-Ala-Pro-Phe (SEQ ID NO:1), Ala-Ala-Pro-Met (SEQ ID NO:2), Ala-Ala-Pro-Leu (SEQ ID NO:3), or a similar sequence in the substrate peptides or proteins. By using Ala-Ala-Pro-Phe-p-nitroanilide as a substrate, the chromogenic assay can be used as a high-throughput method to screen drugs, agents, or chemical compounds that inhibit apoE cleavage activity. Para-nitroanilide is detected spectrophotometrically at about 390-410 nm.
By using the chromogenic assay, in which 1 mM Ala-Ala-Pro-Phe-p-nitroanilide was used as the substrate, we screened many peptides towards the inhibition of the apoE cleavage enzyme activity.

apoE cleavage enzyme [2] = experiment: inhibition of apoE4 cleavage by partially purified apoE cleavage enzyme, anti-apoE western blot; format: biochemical, mouse; settings: peptide 1 mM, 4 μg apoE4, 3 hours at 37° C.
From the text: The peptides Ala-Ala-Pro-Phe (SEQ ID NO:1) and Ala-Ala-Pro-Leu (SEQ ID NO:3) were further tested for the inhibition of apoE cleavage. […] Thus, both Ala-Ala-Pro-Phe (SEQ ID NO:1) and Ala-Ala-Pro-Leu (SEQ ID NO:3) can be used as peptide inhibitors for the apoE cleavage enzyme.

[3] = test system: Neuro2a cells expressing apoE3; experiment: formation of apoE and p-tau immunoreactive intracellular inclusions after Aβ or ER stress inducers; format: cell-based, mouse; settings: untreated 0%; p<0.001
Method: (§1) Cell cultures—Murine neuroblastoma (Neuro-2a) cells were obtained from American Type Culture Collection (Rockville, Md.). Neuro-2a cells were maintained at 37° C. in a humidified 5% CO2 incubator in MEM-containing 10% FBS, supplemented with non-essential amino acids, penicillin, and streptomycin.
(§2) Transient transfection of cells—Neuro-2a, NT2-N, or cultured mouse primary neurons were transiently transfected with various apoE cDNA constructs, as listed in Table I, by using lipofectamine method. Briefly, 2 μg of apoE DNA were pre-incubated with 7 μl of lipofectamine in 200 μl of serum-free MEM containing N2-supplements at room temperature for 30 minutes. After addition of 800 μl of serum-free MEM containing N2-supplements, the mixture was added into the cells that had been washed three times with serum-free MEM. Ten to forty-eight hours later, the transfected cells were used for different experiments.
(§3) Immunocytochemistry—Neuro-2a cells were grown in 2-well chamber slides for 24 hours and were then transiently transfected with different apoE3 or apoE4 DNA constructs, as described above. After washing twice in PBS, the transfected cells were fixed with 3% paraformaldehyde in PBS for 30 minutes at room temperature, washed twice in PBS, and then permeabilized with Triton-X100 for 5 minutes which was followed by three washes in PBS.
(§4) To block nonspecific reactions, all slides were incubated for 1 hour at room temperature with PBS containing 2% BSA and 10% normal serum (Vector) derived from the same species as the source of secondary antibody (sheep or rabbit), followed by a 1-hour incubation with the primary antibody (monospecific rabbit anti-human apoE, 1:500; monoclonal anti-p-tau, 1:100-1:1000, anti-p-NF—H, 1:100-1:500) in PBS containing 2% BSA.
(§5) Slides were then washed three times in PBS containing 2% BSA and incubated for 1 hour at room temperature with the secondary antibody (FITC-coupled anti-rabbit IgG to detect antigen-bond anti-human apoE, Rodamine- or Cy5-coupled anti-mouse IgG to detect antigen-bond anti-p-tau or anti-p-NF—H). After three washes in PBS containing 2% BSA, immunofluorescently labeled slides were mounted in VectaShield (Vector) and viewed with a MRC-1024 laser scanning confocal system (Bio-Rad) mounted on an Optiphot-2 microscope (Nikon, Tokyo, Japan).
(§6) Since Aβ deposition is a major pathological component within the brains of Alzheimer's disease patients, we determined the effect of Aβ treatment on the formation of apoE and p-tau immunoreactive intracellular inclusions in Neuro2a cells expressing apoE.
(§7) Since Aβ treatment of cells can cause ER stress (TN98), other ER stress inducers, including Brefeldin A (BfA) and tunicamycin (TN98), were used to determine whether ER stress can increase the formation of intracellular inclusions in apoE transfected Neuro2a cells. Incubation with either BfA or tunicamycin increased the inclusion-positive cells from 2.7±1.2% to 7.2±2.1% (p<0.001) in apoE4 expressing cells and from 0% to 3.2±1.1% (p<0.001) in apoE3 expressing cells.

[4] = test system: Neuro2a cells expressing apoE4; experiment: as above; format: cell-based, mouse; settings: untreated 2.7±1.2%; p<0.001
Method: as §1, §2, §3, §4, §5, §6, §7

apoE cleavage enzyme [5] = experiment: cleavage of apoE4 in the presence of known protease inhibitors, anti-apoE western blot; format: biochemical, mouse
Method: To test this hypothesis, purified human apoE3 or apoE4 were incubated with brain lysates of apoE knockout mice at 37° C. for 3 hours and the proteolysis of apoE was analyzed by anti-apoE western blot.
To determine the biochemical properties of the putative apoE cleavage enzyme, we tested the effects of different known inhibitors for four major categories of proteases, i.e., serine proteases, cysteine proteases, aspartate proteases, and metalloproteases.

Neuro-2a cells [6] = experiment: formation of intracellular inclusions / NFT-like structures in cells transfected with truncated apoE constructs; format: cell-based, mouse; settings: constructs with deletion of 28 carboxyl-terminal amino acids
Method: as §1, §2
Immunocytochemistry—Neuro-2a cells were grown in 2-well chamber slides for 24 hours and were then transiently transfected with different apoE3 or apoE4 DNA constructs, as described above. […]
For the cells transiently transfected with GFP-apoE DNA constructs, after fixed in 3% paraformaldehyde and washed twice in PBS, the green fluorescence was viewed directly with a MRC-1024 laser scanning confocal system (Bio-Rad) as described above. […]

Neuro-2a cells [7] = experiment: incubation of cells with exogenous recombinant apoE4(Δ272-299) complexed with β-VLDL; format: cell-based, mouse; settings: 30 hours incubation
Method: In human brains, apoE is synthesized and secreted primarily by astrocytes, although human neurons are capable of producing apoE. The secreted apoE can be internalized by neurons. To determine whether internalized apoE4(Δ272-299) can induce formation of NFT-like structures in neurons. Neuro-2a cells were incubated with recombinant apoE4(Δ272-299), which had been complexed with the lipid transport vehicle β-VLDL. After 30 hours incubation, neurite outgrowth and the formation of NFT-like structures in the cells were determined. […] These structures were identical to the tangle-like structures formed in Neuro-2a cells expressing GFP-apoE4(Δ272-299) in the cytosol. Therefore internalized apoE4(Δ272-299) can escape the endosomal-lysosomal pathway and interact with cytosolic p-tau and p-NF—H.

[8] = test system: Neuro-2a cells expressing apoE3 or apoE4; experiment: generation of carboxyl-terminal truncated apoE in cells incubated with Aβ1-42, immunoprecipitation and anti-apoE western blotting; format: cell-based, mouse; settings: more so with apoE4
Method: Immunoprecipitation and western blotting—Neuro-2a cells were grown to 80% confluence in 6-well plates or 15-cm dishes and were then transiently transfected with different apoE DNA constructs, as described above. Twenty-four to forty-eight hours later, the cells were harvested and lysed in ice-cold lysis buffer for 30 minutes. After spinning to remove nuclei (13,000 rpm for 15 minutes), apoE in supernatant was immunoprecipitated with monospecific rabbit anti-human apoE antibody and protein-A agarose beads. The immunoprecipitates were washed twice with lysis buffer and three times with PBS. The presence of apoE, p-tau, or p-NF—H in the immunoprecipitates was analyzed by western blotting using the corresponding antibodies. Alternatively, the supernatants of cell lysates were immunoprecipited with monoclonal anti-p-tau or anti-p-NF—H antibodies and, then, the presence of apoE was analyzed by anti-apoE western blotting.
Since Aβ1-42 increased formation of intracellular inclusions in Neuro2a cells expressing apoE4, we next determined whether treatment of the transfected cells with Aβ will increase generation of the carboxyl-terminal truncated form of apoE. Neuro-2a cells expressing apoE3 or apoE4 were incubated with Aβ1-42, then, intracellular apoE was immunoprecipitated and detected by anti-apoE western blotting. […]

[9] = 6 mM peptide, 20 hour incubation

Molecule: Ala-Ala-Pro-Phe (AAPF; OTHER INFORMATION: synthetic peptide)
- inhibition of apoE cleavage enzyme activity (apoE cleavage enzyme [1]; [9]): 67%
- inhibition of apoE cleavage (apoE cleavage enzyme [2]): significant inhibition

Molecule: apoE4: human apolipoprotein E isoform apoE4, full-length
- inhibition of apoE cleavage enzyme activity (apoE cleavage enzyme [1]; 7 μM apoE4): 89%

Molecule: tunicamycin
- inclusion-positive apoE3 expressing cells after treatment [3]: 3.2±1.1%
- inclusion-positive apoE4 expressing cells after treatment [4]: 7.2±2.1%

Molecule: C[C@H]1CCC/C=C/[C@@H]2C[C@H](O)C[C@H]2[C@H](O)/C=C/C(=O)O1 [BfA, Brefeldin A]
- inclusion-positive apoE3 expressing cells after treatment [3]: 3.2±1.1%
- inclusion-positive apoE4 expressing cells after treatment [4]: 7.2±2.1%

Molecule: O=S(=O)(F)Cc1ccccc1 [PMSF]
- inhibition of the cleavage of apoE4 (apoE cleavage enzyme [5]): totally abolished

Molecule: CC(C)C[C@H](NC(=O)[C@H]1O[C@@H]1C(=O)O)C(=O)NCCCCN=C(N)N [E-64]
- inhibition of the cleavage of apoE4 (apoE cleavage enzyme [5]): did not inhibit

Molecule: apoE4 (Δ272-299): apoE4 with deletion of 28 carboxyl-terminal amino acids
- transfected cells displaying the intracellular filamentous inclusions (Neuro-2a cells [6]): 78±8%
- neurite outgrowth (Neuro-2a cells [7]): did not show neurite outgrowth
- formation of NFT-like structures (Neuro-2a cells [7]; anti-apoE immunofluorescent staining): NFT-like structures were formed

Molecule: O=C(O)CN(CCOCCOCCN(CC(=O)O)CC(=O)O)CC(=O)O [EGTA]
- inhibition of the cleavage of apoE4 (apoE cleavage enzyme [5]): did not inhibit

Molecule: Aβ1-42: amyloid beta (Aβ) peptide 1-42
- inclusion-positive apoE3 expressing cells after treatment [3]: 2.8±0.6%
- inclusion-positive apoE4 expressing cells after treatment [4]: 6.7±1.5%
- amounts of the carboxyl-terminal truncated forms of both apoE3 and apoE4 [8]: significantly increased

Molecule: CC(C)CC(=O)N[C@H](C(=O)N[C@H](C(=O)N[C@@H](CC(C)C)[C@@H](O)CC(=O)N[C@@H](C)C(=O)N[C@@H](CC(C)C)[C@@H](O)CC(=O)O)C(C)C)C(C)C [pepstain] (Isovaleryl-VV[Sta]A[Sta]-OH)
- inhibition of the cleavage of apoE4 (apoE cleavage enzyme [5]): did not inhibit

Molecule: Ala-Ala-Pro-Leu (AAPL; OTHER INFORMATION: synthetic peptide)
- inhibition of apoE cleavage enzyme activity (apoE cleavage enzyme [1]; [9]): 56%
- inhibition of apoE cleavage (apoE cleavage enzyme [2]): significant inhibition

— patent US6787519B2, “Methods of treating disorders related to apoE” (The Regents of the University of California, priority 2000, dated 2004)
